Reference: ChEMBL document CHEMBL3804797, “Discovery of Aryl Sulfonamides as Isoform-Selective Inhibitors of NaV1.7 with Efficacy in Rodent Pain Models” (ACS Med Chem Lett, 2016)

How the values were obtained:
[1] = target: Sodium channel protein type 9 subunit alpha (Homo sapiens, UniProt Q15858); experiment: Inhibition of full length human Nav1.7 channel expressed in HEK cells co-expressing human sodium channel subunit beta1 at holding potential -60 mV by automated voltage clamp analysis; format: cell-based, HEK293
hERG (KCNH2) = hERG (KCNH2) (Homo sapiens, UniProt Q12809); experiment: Displacement of [3H] astemizole from human ERG channel at 5 uM; settings: probe [3H] astemizole
[2] = target: Sodium channel protein type 5 subunit alpha (Homo sapiens, UniProt Q14524); experiment: Inhibition of full length human Nav1.5 channel expressed in HEK cells co-expressing human sodium channel subunit beta1 at holding potential -60 mV by automated voltage clamp analysis; format: cell-based, HEK293
Homo sapiens = organism: Homo sapiens; experiment: Selectivity ratio of IC50 for human Nav1.5 to IC50 for human Nav1.7
[3] = target: Sodium channel protein type 9 subunit alpha (Rattus norvegicus, UniProt O08562); experiment: Inhibition of rat Nav1.7 channel by automated voltage clamp analysis
[4] = Selectivity ratio of IC50 for rat Nav1.7 to IC50 for human Nav1.7

Sequence of hERG (KCNH2) (Q12809 whole entry): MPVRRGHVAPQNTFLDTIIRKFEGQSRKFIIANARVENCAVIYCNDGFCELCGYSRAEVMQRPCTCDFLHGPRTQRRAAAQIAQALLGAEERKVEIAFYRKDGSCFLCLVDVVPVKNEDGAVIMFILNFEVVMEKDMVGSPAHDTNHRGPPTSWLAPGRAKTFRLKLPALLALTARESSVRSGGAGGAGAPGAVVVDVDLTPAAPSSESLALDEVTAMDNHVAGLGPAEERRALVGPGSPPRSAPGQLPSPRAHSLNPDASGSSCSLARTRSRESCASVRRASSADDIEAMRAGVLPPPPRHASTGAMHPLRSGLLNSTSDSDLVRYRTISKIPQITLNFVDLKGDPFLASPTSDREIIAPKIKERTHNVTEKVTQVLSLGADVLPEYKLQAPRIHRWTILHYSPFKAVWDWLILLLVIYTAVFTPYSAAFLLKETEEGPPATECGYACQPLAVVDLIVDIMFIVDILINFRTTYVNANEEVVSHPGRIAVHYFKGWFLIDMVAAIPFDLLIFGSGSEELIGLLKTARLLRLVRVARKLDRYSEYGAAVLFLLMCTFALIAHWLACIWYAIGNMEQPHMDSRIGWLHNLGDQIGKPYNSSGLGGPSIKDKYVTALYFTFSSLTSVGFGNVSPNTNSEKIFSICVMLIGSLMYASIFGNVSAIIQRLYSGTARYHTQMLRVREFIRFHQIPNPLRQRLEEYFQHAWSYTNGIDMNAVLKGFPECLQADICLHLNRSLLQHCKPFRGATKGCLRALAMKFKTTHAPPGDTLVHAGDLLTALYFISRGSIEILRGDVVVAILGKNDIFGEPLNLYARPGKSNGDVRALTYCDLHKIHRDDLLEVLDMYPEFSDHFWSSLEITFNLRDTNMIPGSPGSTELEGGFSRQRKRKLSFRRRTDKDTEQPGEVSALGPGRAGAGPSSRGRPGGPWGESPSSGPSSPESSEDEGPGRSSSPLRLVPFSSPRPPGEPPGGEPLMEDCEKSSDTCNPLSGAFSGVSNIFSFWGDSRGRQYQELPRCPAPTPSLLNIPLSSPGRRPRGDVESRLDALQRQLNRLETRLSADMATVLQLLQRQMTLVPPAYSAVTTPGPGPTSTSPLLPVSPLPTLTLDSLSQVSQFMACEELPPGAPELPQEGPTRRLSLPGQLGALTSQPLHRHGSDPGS
Sequence of Sodium channel protein type 5 subunit alpha (Q14524 whole entry): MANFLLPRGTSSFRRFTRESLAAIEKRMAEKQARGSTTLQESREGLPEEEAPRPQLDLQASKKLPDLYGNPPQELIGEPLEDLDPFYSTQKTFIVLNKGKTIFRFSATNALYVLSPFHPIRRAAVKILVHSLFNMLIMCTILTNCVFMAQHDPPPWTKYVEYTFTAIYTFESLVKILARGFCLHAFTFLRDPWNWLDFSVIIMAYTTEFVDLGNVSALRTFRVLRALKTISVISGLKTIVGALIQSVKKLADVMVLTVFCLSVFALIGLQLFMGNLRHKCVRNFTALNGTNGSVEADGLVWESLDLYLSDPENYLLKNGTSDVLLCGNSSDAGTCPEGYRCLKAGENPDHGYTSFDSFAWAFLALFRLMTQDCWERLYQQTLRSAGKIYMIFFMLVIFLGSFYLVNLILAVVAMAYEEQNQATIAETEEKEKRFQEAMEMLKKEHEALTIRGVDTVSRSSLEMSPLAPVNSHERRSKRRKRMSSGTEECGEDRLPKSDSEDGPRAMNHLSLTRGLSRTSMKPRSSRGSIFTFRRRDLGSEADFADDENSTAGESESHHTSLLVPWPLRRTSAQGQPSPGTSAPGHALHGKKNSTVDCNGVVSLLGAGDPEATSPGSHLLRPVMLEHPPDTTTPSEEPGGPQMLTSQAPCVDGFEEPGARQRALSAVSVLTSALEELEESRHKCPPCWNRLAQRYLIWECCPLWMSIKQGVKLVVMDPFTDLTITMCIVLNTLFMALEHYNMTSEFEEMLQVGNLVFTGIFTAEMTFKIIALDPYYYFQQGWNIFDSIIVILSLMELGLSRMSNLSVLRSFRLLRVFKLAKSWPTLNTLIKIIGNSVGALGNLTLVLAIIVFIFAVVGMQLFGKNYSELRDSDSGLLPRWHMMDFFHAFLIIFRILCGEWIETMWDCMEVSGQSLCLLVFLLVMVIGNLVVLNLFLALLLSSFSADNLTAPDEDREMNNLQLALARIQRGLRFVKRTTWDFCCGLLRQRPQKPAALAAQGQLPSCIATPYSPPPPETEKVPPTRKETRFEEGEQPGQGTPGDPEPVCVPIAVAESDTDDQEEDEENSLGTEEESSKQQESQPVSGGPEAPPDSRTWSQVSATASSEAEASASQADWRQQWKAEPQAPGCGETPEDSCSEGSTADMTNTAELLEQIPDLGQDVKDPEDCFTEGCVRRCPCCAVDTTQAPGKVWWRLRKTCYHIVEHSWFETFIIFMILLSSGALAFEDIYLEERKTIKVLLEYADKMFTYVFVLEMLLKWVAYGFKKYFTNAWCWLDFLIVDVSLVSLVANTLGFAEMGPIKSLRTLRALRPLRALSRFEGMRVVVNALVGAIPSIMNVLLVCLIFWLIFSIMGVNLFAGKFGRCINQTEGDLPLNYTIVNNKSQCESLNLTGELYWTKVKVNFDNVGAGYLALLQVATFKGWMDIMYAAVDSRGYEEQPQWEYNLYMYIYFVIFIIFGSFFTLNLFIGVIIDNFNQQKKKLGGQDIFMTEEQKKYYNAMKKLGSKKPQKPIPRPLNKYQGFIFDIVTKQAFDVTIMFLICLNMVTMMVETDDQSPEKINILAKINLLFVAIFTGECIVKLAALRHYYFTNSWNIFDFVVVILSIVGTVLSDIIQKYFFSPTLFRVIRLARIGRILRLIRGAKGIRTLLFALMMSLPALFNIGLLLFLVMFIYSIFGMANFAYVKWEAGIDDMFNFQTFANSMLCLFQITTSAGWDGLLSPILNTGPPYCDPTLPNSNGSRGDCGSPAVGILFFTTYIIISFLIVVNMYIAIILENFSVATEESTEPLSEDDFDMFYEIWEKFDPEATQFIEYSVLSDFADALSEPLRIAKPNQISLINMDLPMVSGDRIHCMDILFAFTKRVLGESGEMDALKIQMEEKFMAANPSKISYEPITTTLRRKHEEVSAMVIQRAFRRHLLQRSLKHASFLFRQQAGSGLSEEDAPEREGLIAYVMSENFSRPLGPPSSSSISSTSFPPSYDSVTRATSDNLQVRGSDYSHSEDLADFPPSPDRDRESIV
Sequence of Sodium channel protein type 9 subunit alpha (Rattus norvegicus, UniProt O08562) (O08562 whole entry): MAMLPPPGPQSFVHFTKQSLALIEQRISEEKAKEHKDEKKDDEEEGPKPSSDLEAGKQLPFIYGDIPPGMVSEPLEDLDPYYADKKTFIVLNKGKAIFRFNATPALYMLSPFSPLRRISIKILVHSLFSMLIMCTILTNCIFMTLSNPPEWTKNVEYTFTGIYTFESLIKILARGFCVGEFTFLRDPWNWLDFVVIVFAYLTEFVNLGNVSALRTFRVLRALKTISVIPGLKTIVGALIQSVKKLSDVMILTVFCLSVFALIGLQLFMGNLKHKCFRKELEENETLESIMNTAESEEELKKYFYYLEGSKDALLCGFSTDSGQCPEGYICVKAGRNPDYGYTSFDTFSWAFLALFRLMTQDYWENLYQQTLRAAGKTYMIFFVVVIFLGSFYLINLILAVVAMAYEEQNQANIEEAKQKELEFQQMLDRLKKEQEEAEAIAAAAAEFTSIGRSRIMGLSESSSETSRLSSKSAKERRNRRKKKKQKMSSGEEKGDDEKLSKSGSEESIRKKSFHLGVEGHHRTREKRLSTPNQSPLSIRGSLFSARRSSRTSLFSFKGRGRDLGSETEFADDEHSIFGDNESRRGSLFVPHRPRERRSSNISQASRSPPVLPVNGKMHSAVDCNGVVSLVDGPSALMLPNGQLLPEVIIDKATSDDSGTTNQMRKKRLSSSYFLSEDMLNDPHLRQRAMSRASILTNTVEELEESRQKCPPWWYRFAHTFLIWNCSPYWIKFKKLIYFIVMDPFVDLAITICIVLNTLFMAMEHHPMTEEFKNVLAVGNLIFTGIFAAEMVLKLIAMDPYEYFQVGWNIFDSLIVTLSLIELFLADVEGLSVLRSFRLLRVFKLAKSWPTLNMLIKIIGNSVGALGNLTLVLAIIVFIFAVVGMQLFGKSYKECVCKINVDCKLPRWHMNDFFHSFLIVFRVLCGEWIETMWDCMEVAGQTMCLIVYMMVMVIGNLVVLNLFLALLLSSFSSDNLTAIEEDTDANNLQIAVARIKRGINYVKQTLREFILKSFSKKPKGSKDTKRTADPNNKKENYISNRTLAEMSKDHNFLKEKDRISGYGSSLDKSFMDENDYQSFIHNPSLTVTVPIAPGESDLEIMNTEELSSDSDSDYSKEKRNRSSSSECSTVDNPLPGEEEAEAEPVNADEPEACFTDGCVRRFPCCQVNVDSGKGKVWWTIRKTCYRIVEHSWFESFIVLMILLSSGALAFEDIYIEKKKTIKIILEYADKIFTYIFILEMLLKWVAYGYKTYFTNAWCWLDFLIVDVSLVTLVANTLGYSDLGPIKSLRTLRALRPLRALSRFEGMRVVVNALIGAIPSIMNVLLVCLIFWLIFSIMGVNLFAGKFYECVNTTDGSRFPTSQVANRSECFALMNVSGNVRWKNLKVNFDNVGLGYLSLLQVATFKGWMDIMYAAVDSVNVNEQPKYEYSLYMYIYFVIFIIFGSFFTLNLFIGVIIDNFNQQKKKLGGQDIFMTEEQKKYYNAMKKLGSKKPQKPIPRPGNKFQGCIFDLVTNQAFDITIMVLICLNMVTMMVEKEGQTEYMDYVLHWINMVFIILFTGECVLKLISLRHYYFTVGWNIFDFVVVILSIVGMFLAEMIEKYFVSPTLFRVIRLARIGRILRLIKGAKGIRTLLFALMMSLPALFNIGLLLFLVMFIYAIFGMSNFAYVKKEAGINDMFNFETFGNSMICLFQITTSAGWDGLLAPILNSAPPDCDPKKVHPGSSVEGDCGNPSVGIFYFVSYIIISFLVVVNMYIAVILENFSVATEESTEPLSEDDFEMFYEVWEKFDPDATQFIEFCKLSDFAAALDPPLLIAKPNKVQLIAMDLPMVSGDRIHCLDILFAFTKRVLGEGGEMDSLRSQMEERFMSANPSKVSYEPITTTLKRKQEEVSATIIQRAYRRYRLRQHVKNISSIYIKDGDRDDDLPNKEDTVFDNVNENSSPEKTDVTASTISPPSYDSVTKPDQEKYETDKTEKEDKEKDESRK

SMILES | inhibition at 5 µM (hERG (KCNH2)) [%] | IC50 [2] [nM] | further results
Nc1noc2ccc(CCOc3cc(F)c(S(=O)(=O)Nc4ncns4)cc3F)cc12 | < 11 |  | IC50 [1]: 241 nM
Nc1noc2ccc(-c3cccnc3Oc3cc(F)c(S(=O)(=O)Nc4ncns4)cc3F)cc12 | < 11 |  | 
Nc1noc2ccc(-c3ccccc3Oc3cc(F)c(S(=O)(=O)Nc4ncns4)cc3F)cc12 | < 11 |  | 
Nc1noc2ccc(-c3cc(F)ccc3Oc3cc(F)c(S(=O)(=O)Nc4ncns4)cc3F)cc12 | < 11 |  | 
O=S(=O)(Nc1ncns1)c1cc(F)c(Oc2ccc(Cl)cc2-c2ccc3[nH]cnc3c2)cc1F | < 11 | > 10000 | 
O=S(=O)(Nc1ncns1)c1cc(F)c(Oc2ccc(Cl)cc2-c2ccc3nccnc3c2)cc1F | < 11 | > 10000 | Ratio IC50 (Homo sapiens): > 2700; IC50 [3]: 740 nM; Ratio IC50 [4]: > 200
O=S(=O)(Nc1ncns1)c1cc(F)c(Oc2ccc(Cl)cc2-c2cnc3n2CCNC3)cc1F | < 11 | > 10000 | 
CNc1noc2ccc(-c3cc(Cl)ccc3Oc3cc(F)c(S(=O)(=O)Nc4ncns4)cc3F)cc12 | < 11 | 230 | 
O=c1[nH]c2ccc(-c3cc(Cl)ccc3Oc3cc(F)c(S(=O)(=O)Nc4ncns4)cc3F)cc2[nH]1 | < 11 | > 10000 | 
